Measured values taken from US20250113823A1, “Arthropod Control Compositions” (priority 2022, published 2025).
Where two headings read alike, the source gives them in different places.

Tested on: Aedes aegypti
Test: Warm Body assay, mosquito landings on treated warm body
Assay type: in vivo
Conditions: for pest or weed control at 16 µg/mL / pest or weed control at 400 µg/mL / pest or weed control at 10000 µg/mL / pest or weed control at 0.0016 % / pest or weed control at 0.04 % / pest or weed control at 1 % / pest or weed control at 3.2 µg/mL / pest or weed control at 7.1 µg/mL / pest or weed control at 35.7 µg/mL / pest or weed control at 53 µg/mL / pest or weed control at 80 µg/mL / pest or weed control at 119 µg/mL / pest or weed control at 178 µg/mL / pest or weed control at 267 µg/mL / pest or weed control at 598 µg/mL / pest or weed control at 890 µg/mL / pest or weed control at 2000 µg/mL / pest or weed control at 4470 µg/mL: Aedes aegypti; for pest or weed control at 16 µg/mL / pest or weed control at 400 µg/mL / pest or weed control at 10000 µg/mL / pest or weed control at 3.2 µg/mL / pest or weed control at 7.1 µg/mL / pest or weed control at 35.7 µg/mL / pest or weed control at 53 µg/mL / pest or weed control at 80 µg/mL / pest or weed control at 119 µg/mL / pest or weed control at 178 µg/mL / pest or weed control at 267 µg/mL / pest or weed control at 598 µg/mL / pest or weed control at 890 µg/mL / pest or weed control at 2000 µg/mL / pest or weed control at 4470 µg/mL: read-out: Percentage of repellence of mosquitoes Aedes aegypti landing on the warm body; for pest or weed control at 0.0016 %: read-out: reduce the number of mosquito landings; for pest or weed control at 0.04 % / pest or weed control at 1 %: read-out: repellence; for pest or weed control at 3.2 µg/mL: 0.0032 mg/mL (Table 1); for pest or weed control at 7.1 µg/mL: 0.0071 mg/mL (Table 1); for pest or weed control at 35.7 µg/mL: 0.0357 mg/mL (Table 1); for pest or weed control at 53 µg/mL: 0.053 mg/mL (Table 1); for pest or weed control at 80 µg/mL: 0.08 mg/mL (Table 1); for pest or weed control at 119 µg/mL: 0.119 mg/mL (Table 1); for pest or weed control at 178 µg/mL: 0.178 mg/mL (Table 1); for pest or weed control at 267 µg/mL: 0.267 mg/mL (Table 1); for pest or weed control at 598 µg/mL: 0.598 mg/mL (Table 1); for pest or weed control at 890 µg/mL: 0.89 mg/mL (Table 1); for pest or weed control at 2000 µg/mL: 2 mg/mL (Table 1); for pest or weed control at 4470 µg/mL: 4.47 mg/mL (Table 1)
Procedure: The arthropod controlling effect according to the present invention is determined on mosquitoes using an adapted Warm Body assay as defined in Kröber T, Kessler S, Frei J, Bourquin M, Guerin PM. An in vitro assay for testing mosquito controlling compounds employing a warm body and carbon dioxide as a behavioral activator. J Am Mosq Control Assoc. 2010; 26: 381-386. Further information is provided in the accompanying examples
The controlling effect, repellence & spatial repellence, according to the present invention is determined by testing the Warm Body assay against the yellow fever mosquito, Aedes aegypti Rockefeller strain. […] Observations of controlling efficacy were made on host-seeking females of uniform age, 5 to 10 days old selected as mentioned in the publication mentioned hereinabove. Tested hungry females had access to 10% sugar solution but were not blood-fed. Further information is provided in the accompanying examples.
The published protocol has been adapted in not manually counting the landing mosquitoes but automatically using an automatic counting software, the switch from Anopheles gambiae to A. aegypti led to a decrease of mosquitoes' number placed in the tested cage due to the size difference (i.e. 30 mosquitoes instead of 50) and to an increase of lighting as A. aegypti is a diurnal mosquitoes (i.e. 150 lux instead of 4 lux). Further information is provided in the accompanying examples. […]
The controlling effect according to the present invention was assessed using an adapted Warm Body assay as defined in Kröber T, Kessler S, Frei J, Bourquin M, Guerin P M. 2010. J Am Mosq Control Assoc. 26: 381-386. In this in-vitro assay the number of mosquito landing on a warm body, simulating an attractive host treated with the tested stimuli, was measured in order to assess the repellence effect.
The published protocol has been adapted as the switch from Anopheles gambiae to Aedes aegypti led to a decrease of mosquitoes placed in the tested cage due to the size difference (i.e. 30 mosquitoes instead of 50) and to an increase of lighting since A. aegypti is a diurnal mosquitoes (i.e. 150 lux instead of 4 lux).
On the sandblasted glass Petri dish covering the warm body (28.3 cm^2), 100 μL of the compounds diluted at different concentrations in ethanol was applied. The number of mosquito landing on the warm body was counted for each stimulus and pure ethanol (solvent) as control.

[1] = highest tested concentration, 1% (Table 3)
[2] = intermediate concentration of 0.04% (Table 3)
[3] = lowest concentration of 0.0016% (Table 3)

Compound | pest or weed control at 16 µg/mL (0.016 mg/mL (Table 3)) [%] | pest or weed control at 400 µg/mL (0.4 mg/mL (Table 3)) [%] | pest or weed control at 10000 µg/mL (10 mg/mL (Table 3)) [%] | pest or weed control at 1 % [1] [%] | pest or weed control at 0.04 % [2] [%] | further results
COc1cc(C=O)cc(OC)c1OC [compound 2268, 3,4,5-trimethoxybenzaldehyde] | – | – | – | – | – | pest or weed control at 16 µg/mL: 59%; pest or weed control at 400 µg/mL: 88%; pest or weed control at 10000 µg/mL: 95%; pest or weed control at 0.0016 %: > 50%; pest or weed control at 0.04 %: > 75%; pest or weed control at 1 %: > 90%
COC(=O)C(C)Cc1ccc(OC)c(OC)c1 (stereo not drawn) [compound 1698, methyl 3-(3,4-dimethoxyphenyl)-2-methylpropanoate] | 45 | 88 | 100 | > 90 | > 75 | mosquito landing within the two minutes of experiments [1]: protect the attractive stimulus for any mosquito landing
CC=Cc1cc(OC)c(OC)c(OC)c1 [compound 1123, 1,2,3-trimethoxy-5-[1-propen-1-yl]benzene] | – | – | – | – | – | pest or weed control at 3.2 µg/mL: 28%; pest or weed control at 7.1 µg/mL: 10%; pest or weed control at 16 µg/mL (0.016 mg/mL (Table 1)): 63%; pest or weed control at 35.7 µg/mL: 45%; pest or weed control at 53 µg/mL: 81%; pest or weed control at 80 µg/mL: 67%; pest or weed control at 119 µg/mL: 71%; pest or weed control at 178 µg/mL: 83%; pest or weed control at 267 µg/mL: 90%; pest or weed control at 400 µg/mL (0.4 mg/mL (Table 1)): 91%; pest or weed control at 598 µg/mL: 95%; pest or weed control at 890 µg/mL: 90%; pest or weed control at 2000 µg/mL: 98%; pest or weed control at 4470 µg/mL: 100%; pest or weed control at 10000 µg/mL (10 mg/mL (Table 1)): 98%
COc1ccc2ccc(=O)oc2c1O [compound 1551, 8-hydroxy-7-methoxychromen-2-one] | 55 | 42 | 91 | > 90 | – | pest or weed control at 0.0016 % [3]: > 50%
COc1cc(CC(=O)O)ccc1O [compound 1567, 2-(4-hydroxy-3-methoxyphenyl)acetic acid] | 54 | 86 | 98 | > 90 | > 75 | pest or weed control at 0.0016 %: > 50%
COc1cc(C2CC=C(C)CO2)ccc1O (stereo not drawn) [compound 1478, 2-methoxy-4-(5-methyl-3,6-dihydro-2H-pyran-2-yl)phenol] | 0 | 76 | 73 | – | > 75 | –
C=CC(C)CCCC(C)(C)OCC=Cc1ccc(O)c(OC)c1 (stereo not drawn) [compound 1519, 4-{3-[(2,6-dimethyl-7-octen-2-yl)oxy]-1-propen-1-yl}-2-methoxyphenol] | 67 | 71 | 95 | > 90 | – | pest or weed control at 0.0016 % [3]: > 50%
COc1cccc(CO)c1OC [compound 2263, (2,3-dimethoxyphenyl)methanol] | 52 | 96 | 97 | > 90 | > 75 | pest or weed control at 0.0016 % [3]: > 50%
CC=Cc1cc(OC)c(OC)c(OC)c1 [compound 1126, 1,2,3-trimethoxy-5-prop-1-enylbenzene] | 31 | 71 | 90 | > 90 | – | –
COc1ccc(O)c(OC)c1OC [compound 1204, 2,3,4-trimethoxyphenol] | 46 | 83 | 92 | > 90 | > 75 | –
COc1cc(C)cc(OC)c1OC [compound 2250, 1,2,3-trimethoxy-5-methybenzene] | – | – | – | – | – | Percentage of repellence of mosquitoes Aedes aegypti landing on the warm body (0.016 mg/mL (Table 3)): 21%; Percentage of repellence of mosquitoes Aedes aegypti landing on the warm body (0.4 mg/mL (Table 3)): 57%; Percentage of repellence of mosquitoes Aedes aegypti landing on the warm body (10 mg/mL (Table 3)): 100%; mosquito landing within the two minutes of experiments [1]: protect the attractive stimulus for any mosquito landing
COc1ccc(CCC(=O)O)cc1OC [compound 1561, 3-(3,4-dimethoxyphenyl)propanoic acid] | 9 | 37 | 84 | – | – | –
COc1cc(CC=O)ccc1O [compound 1467, 2-(4-hydroxy-3-methoxyphenyl)acetaldehyde] | 29 | 84 | 79 | – | > 75 | –
CCOc1cc(C=O)ccc1OC(=O)C(C)C [compound 1469, (2-ethoxy-4-formylphenyl) 2-methylpropanoate] | 64 | 65 | 95 | > 90 | – | pest or weed control at 0.0016 % [3]: > 50%
COc1ccc(C(C)=O)c(OC)c1OC [compound 2269, 1-(2,3,4-trimethoxyphenyl)ethanone] | 18 | 70 | 100 | > 90 | – | mosquito landing within the two minutes of experiments [1]: protect the attractive stimulus for any mosquito landing
CCOc1cc(C=O)ccc1OC [compound 2272, 3-ethoxy-4-methoxybenzaldehyde] | 0 | 77 | 89 | – | > 75 | –
COc1cccc(OC)c1OC [compound 1822, 1,2,3-trimethoxybenzene] | 54 | 39 | 100 | > 90 | – | pest or weed control at 0.0016 % [3]: > 50%; mosquito landing within the two minutes of experiments [1]: protect the attractive stimulus for any mosquito landing
CCCc1cc(OC)c(O)c(OC)c1 [compound 1502, 2,6-dimethoxy-4-propylphenol] | – | – | – | – | – | pest or weed control at 3.2 µg/mL: 0%; pest or weed control at 7.1 µg/mL: 0%; pest or weed control at 16 µg/mL (0.016 mg/mL (Table 1)): 32%; pest or weed control at 35.7 µg/mL: 0%; pest or weed control at 53 µg/mL: 61%; pest or weed control at 80 µg/mL: 0%; pest or weed control at 119 µg/mL: 14%; pest or weed control at 178 µg/mL: 94%; pest or weed control at 267 µg/mL: 94%; pest or weed control at 400 µg/mL (0.4 mg/mL (Table 1)): 88%; pest or weed control at 598 µg/mL: 94%; pest or weed control at 890 µg/mL: 99%; pest or weed control at 2000 µg/mL: 96%; pest or weed control at 4470 µg/mL: 100%; pest or weed control at 10000 µg/mL (10 mg/mL (Table 1)): 96%
